Data reported in patent publication US8937080B2, “Pyrimidine substituted macrocyclic HCV inhibitors” (Medivir AB, priority 2007, dated 2015).
Read-outs that look alike come from different tables or passages of the source.

Experiments:
[1] = tested on: HCV replicons (wild type NS3-NS5B regions of HCV type 1b) in Huh-7 luc/neo cells; assay: Replicon assay (Huh-Luc cells, luciferase readout); assay type: cell-based; settings: Hepatitis C virus, Huh-7, 72 h, incubation of three days, luciferase activity
From the text: The compounds of formula (I) were examined for activity in the inhibition of HCV RNA replication in a cellular assay. […] The cellular assay was based on a bicistronic expression construct, as described by Lohmann et al. (1999) Science vol. 285 pp. 110-113 with modifications described by Krieger et al. (2001) Journal of Virology 75: 4614-4624, in a multi-target screening strategy. In essence, the method was as follows.
The assay utilized the stably transfected cell line Huh-7 luc/neo (hereafter referred to as Huh-Luc). This cell line harbors an RNA encoding a bicistronic expression construct comprising the wild type NS3-NS5B regions of HCV type 1b translated from an Internal Ribosome Entry Site (IRES) from encephalomyocarditis virus (EMCV), preceded by a reporter portion (FfL-luciferase), and a selectable marker portion (neo^R, neomycine phosphotransferase). The construct is bordered by 5′ and 3′ NTRs (non-translated regions) from HCV type 1b. Continued culture of the replicon cells in the presence of G418 (neo^R) is dependent on the replication of the HCV RNA. The stably transfected replicon cells that express HCV RNA, which replicates autonomously and to high levels, encoding inter alia luciferase, are used for screening the antiviral compounds.
The replicon cells were plated in 384 well plates in the presence of the test and control compounds which were added in various concentrations. Following an incubation of three days, HCV replication was measured by assaying luciferase activity (using standard luciferase assay substrates and reagents and a Perkin Elmer ViewLux™ ultraHTS microplate imager). Replicon cells in the control cultures have high luciferase expression in the absence of any inhibitor. The inhibitory activity of the compound on luciferase activity was monitored on the Huh-Luc cells, enabling a dose-response curve for each test compound. EC50 values were then calculated, which value represents the amount of the compound required to decrease by 50% the level of detected luciferase activity, or more specifically, the ability of the genetically linked HCV replicon RNA to replicate.

[2] = target: HCV NS3/4A protease complexes (full-length hepatitis C NS3 protease enzyme with NS4A cofactor) (Hepatitis C virus genotype 1a, UniProt P27958); assay: Inhibition assay (enzymatic assay, depsipeptide substrate hydrolysis); assay type: biochemical; settings: enzyme 1 nM, 25 μM NS4A cofactor, 0.5 μM substrate, 30° C., competitive inhibition model
Sequence of HCV NS3/4A protease complexes (full-length hepatitis C NS3 protease enzyme with NS4A cofactor) (P27958 1027-1657, other chains not shown): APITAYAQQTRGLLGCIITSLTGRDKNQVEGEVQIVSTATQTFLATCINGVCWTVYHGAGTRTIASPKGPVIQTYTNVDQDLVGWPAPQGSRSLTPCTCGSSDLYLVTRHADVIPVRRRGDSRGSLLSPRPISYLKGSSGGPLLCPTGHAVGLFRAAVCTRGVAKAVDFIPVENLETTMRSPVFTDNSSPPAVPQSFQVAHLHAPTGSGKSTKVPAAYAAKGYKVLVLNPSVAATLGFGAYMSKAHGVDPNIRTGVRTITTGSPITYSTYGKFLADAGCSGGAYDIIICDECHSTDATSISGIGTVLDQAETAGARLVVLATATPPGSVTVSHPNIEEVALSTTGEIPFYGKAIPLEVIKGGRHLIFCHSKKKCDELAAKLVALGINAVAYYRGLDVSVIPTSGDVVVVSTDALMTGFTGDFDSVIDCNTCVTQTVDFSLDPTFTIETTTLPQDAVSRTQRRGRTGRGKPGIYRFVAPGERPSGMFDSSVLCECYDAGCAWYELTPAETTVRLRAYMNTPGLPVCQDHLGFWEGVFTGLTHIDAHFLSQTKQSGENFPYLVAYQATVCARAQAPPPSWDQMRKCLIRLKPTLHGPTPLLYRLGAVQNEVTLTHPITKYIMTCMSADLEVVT
Experimental: The aim of this in vitro assay is to measure the inhibition of HCV NS3/4A protease complexes by the compounds of the present invention. This assay provides an indication of how effective compounds of the present invention would be in inhibiting HCV NS3/4A proteolytic activity.
The inhibition of full-length hepatitis C NS3 protease enzyme was measured essentially as described in Poliakov, 2002 Prot Expression & Purification 25 363 371. Briefly, the hydrolysis of a depsipeptide substrate, Ac-DED(Edans)EEAbuψ[COO]ASK(Dabcyl)-NH2 (AnaSpec, San José, USA), was measured spectrofluorometrically in the presence of a peptide cofactor, KKGSVVIVGRIVLSGK (Åke Engström, Department of Medical Biochemistry and Microbiology, Uppsala University, Sweden). [Landro, 1997 #Biochem 36 9340-9348]. The enzyme (1 nM) was incubated in 50 mM HEPES, pH 7.5, 10 mM DTT, 40% glycerol, 0.1% n-octyl-D-glucoside, with 25 μM NS4A cofactor and inhibitor at 30° C. for 10 min, whereupon the reaction was initiated by addition of 0.5 μM substrate. Inhibitors were dissolved in DMSO, sonicated for 30 sec. and vortexed. The solutions were stored at −20° C. between measurements.
The final concentration of DMSO in the assay sample was adjusted to 3.3%. The rate of hydrolysis was corrected for inner filter effects according to published procedures.
[Liu, 1999 Analytical Biochemistry 267 331-335]. Ki values were estimated by non-linear regression analysis (GraFit, Erithacus Software, Staines, MX, UK), using a model for competitive inhibition and a fixed value for Km (0.15 μM). A minimum of two replicates was performed for all measurements.

[3] = rcm bond, 14-membered ring, Hoveyda-Grubbs II, DCE, 16.0 h

COc1nc(O[C@@H]2C[C@H]3C(=O)N[C@]4(C(=O)NS(=O)(=O)C5(C)CC5)C[C@H]4/C=C\CCCCCNC(=O)N3C2)cc(-c2ccccc2)n1 [Example 4, 1-Methyl-cyclopropanesulfonic acid [18-(2-methoxy-6-phenylpyrimidin-4-yloxy)-2,15-dioxo-3,14,16-triaza-tricyclo[14.3.0.0*4,6*]nonadec-7-ene-4-carbonyl]-amide]
EC50 [1]: 200 to 990 nM | Ki [2]: 0.1 to 4.9 nM

COc1nc(OC2CC3C(=O)NC4(C(=O)NS(=O)(=O)C5CC5)CC4C=CCCCCN(C)C(=O)C3C2)cc(C(C)(C)C)n1 (centres unmarked) [Example 3, Cyclopropanesulfonic acid [17-(6-tert-butyl-2-methoxypyrimidin-4-yloxy)-13-methyl-2,14-dioxo-3,13-diaza-tricyclo[13.3.0.0*4,6*]octadec-7-ene-4-carbonyl]amide]
EC50 [1]: 1000 to 10000 nM | Ki [2]: 5 to 99.9 nM

COc1nc(OC2CC3C(=O)NC4(C(=O)NS(=O)(=O)C5CC5)CC4C=CCCCCCNC(=O)N3C2)cc(-c2ccccc2)n1 (centres unmarked) [Example 2, Cyclopropanesulfonic acid [18-(2-methoxy-6-phenylpyrimidin-4-yloxy)-2,15-dioxo-3,14,16-triaza-tricyclo[14.3.0.0*4,6*]nonadec-7-ene-4-carbonyl]-amide]
EC50 [1]: 1000 to 10000 nM | Ki [2]: 0.1 to 4.9 nM

COc1nc(OC2CC3C(=O)NC4(C(=O)NS(=O)(=O)C5CC5)CC4C=CCCCCN(C)C(=O)N3C2)cc(-c2ccccc2)n1 (centres unmarked) [Example 1, Cyclopropanesulfonic acid [17-(2-methoxy-6-phenyl-pyrimidin-4-yloxy)-13-methyl-2,14-dioxo-3,13,15-triaza-tricyclo[13.3.0.0*4,6*]octadec-7-ene-4-carbonyl]-amide]
EC50 [1]: 1000 to 10000 nM | Ki [2]: 0.1 to 4.9 nM

CCOC(=O)C12CC1C=CCCCCN(C)C(=O)C1CC(Oc3cc(OC)nc(OC)n3)CC1C(=O)N2 (centres unmarked)
ring closure, isolated yield ([3]; from C=CCCCCN(C)C(=O)C1CC(Oc2cc(OC)nc(OC)n2)CC1C(=O)NC1(C(=O)OCC)CC1C=C, 1.91 mM): 49%

COc1cc(O[C@@H]2C[C@H]3C(=O)N[C@]4(C(=O)NS(=O)(=O)c5cccs5)C[C@H]4/C=C\CCCCN(C)C(=O)[C@@H]3C2)nc(-c2ccccc2)n1 [Example 9, Thiophene-2-sulfonic acid [17-(6-methoxy-2-phenylpyrimidin-4-yloxy)-13-methyl-2,14-dioxo-3,13-diaza-tricyclo[13.3.0.0*4,6*]octadec-7-ene-4-carbonyl]-amide]
EC50 [1]: 1000 to 10000 nM

CCOC(=O)C12CC1C=CCCCCN(C)C(=O)C1CC(Oc3cc(OC)nc(-c4ccccc4)n3)CC1C(=O)N2 (centres unmarked)
ring closure, isolated yield ([3]; from C=CCCCCN(C)C(=O)C1CC(Oc2cc(OC)nc(-c3ccccc3)n2)CC1C(=O)NC1(C(=O)OCC)CC1C=C, 1.69 mM): 38%

CN1CCCC/C=C\[C@@H]2C[C@@]2(C(=O)NS(=O)(=O)C2CC2)NC(=O)[C@@H]2C[C@@H](Oc3ccnc(N4CCOCC4)n3)C[C@H]2C1=O [Example 11, Cyclopropanesulfonic acid [13-methyl-17-(2-morpholin-4-yl-pyrimidin-4-yloxy)-2,14-dioxo-3,13-diaza-tricyclo[13.3.0.0*4,6*]octadec-7-ene-4-carbonyl]-amide]
EC50 [1]: > 10000 nM | Ki [2]: 5 to 99.9 nM

CN1CCCCC=CC2CC2(C(=O)NS(=O)(=O)C2CC2)NC(=O)C2CC(Oc3cc(-c4ccccc4)nc(-c4ccccc4)n3)CC2C1=O (centres unmarked) [Example 17, Cyclopropanesulfonic acid [17-(2,6-diphenyl-pyrimidin-4-yloxy)-13-methyl-2,14-dioxo-3,13-diaza-tricyclo[13.3.0.0*4,6*]octadec-7-ene-4-carbonyl]-amide]
EC50 [1]: 200 to 990 nM | Ki [2]: 0.1 to 4.9 nM

CC(C)Nc1nccc(O[C@@H]2C[C@H]3C(=O)N[C@]4(C(=O)NS(=O)(=O)C5CC5)C[C@H]4/C=C\CCCCN(C)C(=O)[C@@H]3C2)n1 [Example 12, Cyclopropanesulfonic acid [17-(2-isopropylaminopyrimidin-4-yloxy)-13-methyl-2,14-dioxo-3,13-diaza-tricyclo[13.3.0.0*4,6*]octadec-7-ene-4-carbonyl]-amide]
EC50 [1]: > 10000 nM | Ki [2]: 5 to 99.9 nM

COc1nc(O[C@@H]2C[C@H]3C(=O)N[C@]4(C(=O)NS(=O)(=O)C5(C)CC5)C[C@H]4/C=C\CCCCN(C)C(=O)[C@@H]3C2)cc(C(C)(C)C)n1 [Example 5, 1-Methyl-cyclopropanesulfonic acid [17-(6-tert-butyl-2-methoxy-pyrimidin-4-yloxy)-13-methyl-2,14-dioxo-3,13-diaza-tricyclo[13.3.0.0*4,6*]octadec-7-ene-4-carbonyl]-amide]
EC50 [1]: > 10000 nM | Ki [2]: 100 to 1000 nM

COc1cccc(-c2cc(O[C@@H]3C[C@H]4C(=O)N[C@]5(C(=O)NS(=O)(=O)C6CC6)C[C@H]5/C=C\CCCCN(C)C(=O)[C@@H]4C3)nc(OC)n2)c1 [Example 24, Cyclopropanesulfonic acid {17-[2-methoxy-6-(3-methoxy-phenyl)-pyrimidin-4-yloxy]-13-methyl-2,14-dioxo-3,13-diaza-tricyclo[13.3.0.0*4,6*]octadec-7-ene-4-carbonyl}-amide]
EC50 [1]: 0.5 to 199 nM

COc1cc(OC2CC3C(=O)NC4(C(=O)NS(=O)(=O)C5CC5)CC4C=CCCCCCNC(=O)N3C2)nc(-c2ccccc2)n1 (centres unmarked) [Example 6, Cyclopropanesulfonic acid [18-(6-methoxy-2-phenylpyrimidin-4-yloxy)-2,15-dioxo-3,14,16-triaza-tricyclo[14.3.0.0*4,6*]nonadec-7-ene-4-carbonyl]-amide]
EC50 [1]: 0.5 to 199 nM | Ki [2]: 0.1 to 4.9 nM

COc1cc(OC2CC3C(=O)NC4(C(=O)NS(=O)(=O)C5(C)CC5)CC4C=CCCCCN(C)C(=O)C3C2)nc(-c2ccccc2)n1 (centres unmarked) [Example 7, 1-Methyl-cyclopropanesulfonic acid [17-(6-methoxy-2-phenylpyrimidin-4-yloxy)-13-methyl-2,14-dioxo-3,13-diaza-tricyclo[13.3.0.0*4,6*]octadec-7-ene-4-carbonyl]-amide]
EC50 [1]: 0.5 to 199 nM | Ki [2]: 0.1 to 4.9 nM

COc1ccc(-c2cc(OC3CC4C(=O)NC5(C(=O)NS(=O)(=O)C6CC6)CC5C=CCCCCN(C)C(=O)C4C3)nc(OC)n2)cc1 (centres unmarked) [Example 16, Cyclopropanesulfonic acid {17-[2-methoxy-6-(4-methoxy-phenyl)-pyrimidin-4-yloxy]-13-methyl-2,14-dioxo-3,13-diaza-tricyclo[13.3.0.0*4,6*]octadec-7-ene-4-carbonyl}-amide]
EC50 [1]: 200 to 990 nM | Ki [2]: 0.1 to 4.9 nM

COc1nc(O[C@@H]2C[C@H]3C(=O)N[C@]4(C(=O)NS(=O)(=O)C5(C)CC5)C[C@H]4/C=C\CCCCN(C)C(=O)[C@@H]3C2)cc(-c2ccccc2)n1 [Example 14, 1-Methyl-cyclopropanesulfonic acid [17-(2-methoxy-6-phenyl-pyrimidin-4-yloxy)-13-methyl-2,14-dioxo-3,13-diaza-tricyclo[13.3.0.0*4,6*]octadec-7-ene-4-carbonyl]-amide]
EC50 [1]: 200 to 990 nM | Ki [2]: 5 to 99.9 nM

COc1cccc(-c2cc(O[C@@H]3C[C@H]4C(=O)N[C@]5(C(=O)NS(=O)(=O)C6(C)CC6)C[C@H]5/C=C\CCCCN(C)C(=O)[C@@H]4C3)nc(OC)n2)c1 [Example 25, 1-Methyl-cyclopropanesulfonic acid {17-[2-methoxy-6-(3-methoxy-phenyl)-pyrimidin-4-yloxy]-13-methyl-2,14-dioxo-3,13-diaza-tricyclo[13.3.0.0*4,6*]octadec-7-ene-4-carbonyl}-amide]
EC50 [1]: 0.5 to 199 nM
